Experimental data as given in patent US20090324624A1, “Chitin micro-particles as an adjuvant” (priority 2006, published 2009).

Tests used:
Type in all cases: cell-based, mouse
IL-10 mRNA = IL-10 mRNA expression in RAW264.7 MØ (RT-PCR)
[1] = tested on: scavenger receptor A (SR-A); test: Surface expression of MØ antigens, cytometry: SR-A; conditions: 5 mM MBCD, 1 hr at 37°
RAW 264.7 MØ [2] = test: TNF-α production by MBCD- or saline-treated MØ (ELISA); conditions: for increase in TNF-α production in response to chitin particles: 1 mM MBCD
[3] = tested on: Fcγ receptor II/III (FcγR); test: Surface expression of MØ antigens, cytometry: FcγR; conditions: 5 mM MBCD, 1 hr at 37°
Experimental: For evaluation of phagocytosis, MØ were incubated with 100 μg/ml FITC-chitin particles at 37° C. for 20 or 40 min. Fluorescence of unphagocytosed FITC-chitin was quenched with 50 mM acetate-buffered saline (pH 4.5) containing 2 mg/ml trypan blue, and the fluorescence intensity of MØ with intracellular FITC-chitin particles was measured cytometrically. The presence of intracellular FITC-chitin particles was further confirmed by fluorescence microscopy (Provis AX70 Microscope with MagnaFire, Olympus, Center Valley, Pa.). Expression of F4/80, Mac-1, FcγR, SR-A, TLR4, or MR on MØ was determined cytometrically.
The effect of cholesterol depletion on expression of the selected MØ surface antigens F4/80, Mac-1, FcγR, SR-A, TLR4, and MR was determined. […] The expression of TLR4 and MR were not altered by MBCD. The values for mean fluorescence intensity were consistent with the effects of MBCD on the expression of MØ antigens (Table 3). Therefore, MBCD at 5 mM or less was used for further experiments. All studies of chitin stimulation in the presence of MBCD were terminated within 6 h.

RAW 264.7 MØ [4] = test: Cell-surface binding of FITC-chitin particles; conditions: MBCD-treated vs saline-treated MØ
Experimental: For chitin binding and phagocytosis assays, 1-10 μm chitin particles were labeled with fluorescein isothiocyanate (FITC). Particles (10 mg) and FITC (0.1 mg) were mixed and incubated in 0.1 M NaHCO3 at 22° C. for 2 h. Glycine (final 1 M) was added to bind free FITC, after which labeled particles were washed and suspended in saline at 10 mg/ml. To assess cell-surface binding of chitin, MØ were incubated with 100 μg/ml FITC-chitin particles on ice for 30 min. Free particles were removed by washing three times, and cellular fluorescence was measured cytometrically (BD FACSCalibur system with CELL Quest™ acquisition plus analysis program; Becton-Dickinson Immunocytometry Systems, San Jose, Calif.). To confirm that MØ binding to chitin particles was not altered by FITC, an excess of unlabeled particles (1,000 μg/ml) was used to compete with FITC-chitin.
It was also determined whether cholesterol depletion modifies MØ binding and internalization of FITC-chitin microparticles. […] Internalization of FITC-chitin particles at 37° C. was analyzed following quenching of unphagocytosed FITC-chitin. The magnitude of phagocytosis is similar for MBCD- and saline-treated MØ at 20 min: 12 and 12%, respectively.

mannose receptor (MR) = test: Surface expression of MØ antigens, cytometry: MR; conditions: 5 mM MBCD, 1 hr at 37°; 2nd antibody control 7.0
COX-2 = COX-2 expression and PGE2 release by MBCD- or saline-treated MØ
[5] = tested on: chitin phagosome-associated p38 and ERK1/2; test: Phagosomal (chitin particle-associated) MAPK phosphorylation; conditions: 10, 20 and 40 min
Experimental: FIG. 14 is a series of photographs of gels showing Phagosomal localization of MAPK proteins. MBCD- and saline-treated MØ were stimulated with 100 μg/ml 1-10 μm chitin particles at 37° C. for 10, 20 or 40 min. Chitin particle-associated proteins were isolated and extracted as described in Example 3. Particle-associated proteins derived from 2×10^6 MØ as well as whole cell proteins were separated on SDS-11% polyacrylamide gel and electroblotted to PVDF membrane. The data shown are representative of two independent experiments.
MBCD- or saline-treated MØ (2×10^6/ml) were stimulated with 100 μg/ml 1-10 μm chitin particles at 37° C. for 10, 20, or 40 min, washed with saline, suspended in homogenization buffer (50 mM Tris-HCl, pH 7.5, 0.32 M sucrose, 10 mM NaF, 1 mM Na3VO4, 5 mM EDTA, 1:500 protease inhibitor cocktail [Sigma]), and homogenized by sonication (20 s). […] Total and phosphorylated p38 and ERK1/2 as well as lysosome-associated membrane protein-1 (LAMP-1) were detected by western blotting with specific antibodies as described above. […]
The extent of phosphorylation of MAPK associated with intracellular chitin particles in MBCD-treated and saline-treated MØ was determined. […] MAPKs p38 and ERK1/2 and the respective phosphorylated forms were detected in the particle-associated fractions at 10, 20 and 40 min (FIG. 14). […] Phosphorylated JNK was not detected in the particle-associated fraction.

Mac-1 = tested on: Mac-1
F4/80 = test: Surface expression of MØ antigens, cytometry: F4/80; conditions: 5 mM MBCD, 1 hr at 37°
[6] = tested on: Toll-like receptor 4 (TLR4); test: Surface expression of MØ antigens, cytometry: TLR4; conditions: 5 mM MBCD, 1 hr at 37°; 2nd antibody control 7.0

Chain of Mac-1 (P05555 17-1153): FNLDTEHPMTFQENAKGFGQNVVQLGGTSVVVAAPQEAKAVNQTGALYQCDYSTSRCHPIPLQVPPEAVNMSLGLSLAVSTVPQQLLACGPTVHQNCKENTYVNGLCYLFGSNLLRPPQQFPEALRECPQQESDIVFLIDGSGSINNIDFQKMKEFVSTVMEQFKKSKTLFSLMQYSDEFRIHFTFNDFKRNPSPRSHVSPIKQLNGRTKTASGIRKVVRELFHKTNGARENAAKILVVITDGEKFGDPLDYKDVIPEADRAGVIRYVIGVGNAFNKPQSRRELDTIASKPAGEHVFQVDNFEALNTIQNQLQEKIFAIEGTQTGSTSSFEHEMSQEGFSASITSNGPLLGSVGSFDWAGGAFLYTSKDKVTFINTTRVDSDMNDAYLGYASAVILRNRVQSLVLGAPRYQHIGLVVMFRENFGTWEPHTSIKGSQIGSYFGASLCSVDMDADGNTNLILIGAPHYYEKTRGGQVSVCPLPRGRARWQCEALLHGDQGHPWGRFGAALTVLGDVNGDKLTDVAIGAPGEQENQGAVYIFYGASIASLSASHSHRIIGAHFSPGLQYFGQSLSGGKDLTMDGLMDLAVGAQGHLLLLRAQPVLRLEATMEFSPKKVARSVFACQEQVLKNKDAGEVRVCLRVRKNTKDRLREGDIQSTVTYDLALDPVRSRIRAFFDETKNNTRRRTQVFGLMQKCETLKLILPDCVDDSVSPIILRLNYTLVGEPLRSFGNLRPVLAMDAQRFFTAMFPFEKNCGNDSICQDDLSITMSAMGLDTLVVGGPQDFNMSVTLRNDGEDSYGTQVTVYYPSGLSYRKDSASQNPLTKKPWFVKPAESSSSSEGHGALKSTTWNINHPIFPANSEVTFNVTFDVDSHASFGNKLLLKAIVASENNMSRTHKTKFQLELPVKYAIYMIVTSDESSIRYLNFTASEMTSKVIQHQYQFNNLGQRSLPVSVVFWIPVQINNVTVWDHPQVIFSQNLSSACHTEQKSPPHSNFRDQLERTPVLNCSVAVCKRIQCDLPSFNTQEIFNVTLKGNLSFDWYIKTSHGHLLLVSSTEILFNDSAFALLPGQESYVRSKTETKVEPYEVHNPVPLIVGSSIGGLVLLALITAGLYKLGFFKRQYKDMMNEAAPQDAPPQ

Substance: methyl-β-cyclodextrin [MBCD]
- CpG-ODN-induced IL-10 mRNA after MBCD treatment (IL-10 mRNA): not increased
- chitin particle-induced IL-10 mRNA expression after MBCD treatment (IL-10 mRNA; 6 h): did not result in IL-10 mRNA expression
- % positive cells in M1, SR-A [1]: 81%
- MFI, SR-A ([1]; 2nd antibody control 7.0): 32
- increase in TNF-α production in response to chitin particles (RAW 264.7 MØ [2]; 20 μg/ml chitin particles): 3 fold
- increase in TNF-α production in response to chitin particles (RAW 264.7 MØ [2]; 100 μg/ml chitin particles): 1.8 fold
- TNF-α production, MBCD alone (RAW 264.7 MØ [2]; 5 mM MBCD): enhanced slightly but significantly
- % positive cells in M1, FcγR [3]: 65%
- MFI, FcγR ([3]; 2nd antibody control 7.0): 14
- effect of MBCD treatment on MØ binding to FITC-chitin particles (RAW 264.7 MØ [4]): not significantly altered
- MFI, MR (mannose receptor (MR)): 73
- CpG-ODN-induced COX-2 expression or PGE2 release (COX-2; 1 mM MBCD): did not enhance
- COX-2 expression, MBCD alone (COX-2; 5 mM MBCD): induced
- PGE2 release vs MØ treated with saline (COX-2; 5 mM MBCD): not different
- relative amounts of chitin-associated phosphorylated MAPK, MBCD- vs saline-treated cells (FIG. 14) [5]: greater
- % positive cells in M1, Mac-1 (Mac-1): 81%
- MFI, Mac-1 (Mac-1): 36
- % positive cells in M1, F4/80 (F4/80): 69%
- MFI, F4/80 (F4/80; 2nd antibody control 7.0): 17
- MFI, TLR4 [6]: 23
